Results reported in PubChem BioAssay (NCI).
“And” between values parts separate entries of the source, which are not always exact repeats. Equal entries are not always repeated.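 Test compounds were applied to cells in 96-well plates for 48 hours at 5 doses. At the GI50, growth is halved. At the TGI there is no net growth.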

Tests used:
Assay in all cases: DTP human tumour cell line panel, 48 h
[1] = system: MCF7 breast
[2] = system: MOLT-4 leukemia
[3] = system: K-562 leukemia
[4] = system: A549 NSCLC
[5] = system: HOP-62 NSCLC
[6] = system: SN12C renal
[7] = system: DU-145 prostate
[8] = system: NCI-H226 lung
[9] = system: HS 578T breast

| Compound | TGI [1] | TGI [2] | TGI [3] | TGI [4] | TGI [5] | TGI [6] | TGI [7] | TGI [8] | TGI [9] | GI50 [1] | GI50 [4] | GI50 [5] | GI50 [6] | GI50 [7] | GI50 [2] | GI50 [8] | GI50 [3] | GI50 [9] |
| --- | --- | --- | --- | --- | --- | --- | --- | --- | --- | --- | --- | --- | --- | --- | --- | --- | --- | --- |
| CCN1CCCC(Nc2cc(C)nc(/N=C(/N)Nc3ccc(Cl)c(Cl)c3)n2)C1 (stereo not drawn) | 3.59 µM | 2.42 µM | 0.558 µM | 4.22 µM | 2.88 µM | 6.64 µM | 15.3 µM | – | – | – | – | – | – | – | – | – | – | – |
| COc1cc(OC)cc(-n2c(N)c(-c3nc4ccccc4n3C)c3ccc([N+](=O)[O-])cc3c2=O)c1 | – | – | > 100 µM | > 100 µM | – | > 100 µM | > 100 µM | > 100 µM | 83.3 µM | – | – | – | – | – | – | – | – | – |
| CC(=O)C12C[C@](C#N)(N3CCCCCC3)C1C=Cc1ccccc12 (stereo partly drawn) | > 100 µM | > 100 µM | > 100 µM | > 100 µM | > 100 µM | > 100 µM | > 100 µM | > 100 µM | > 100 µM | – | – | – | – | – | – | – | – | – |
| Cn1c2c(c3ccccc31)CCN1C(=O)C3SC21C1C(=O)N(c2ccccc2)C(=O)C31 (stereo not drawn) | > 100 µM | > 100 µM | > 100 µM | > 100 µM | > 100 µM | > 100 µM | > 100 µM | > 100 µM | > 100 µM | – | – | – | – | – | – | – | – | – |
| Cc1nn(C(=O)c2ccncc2)c2c1C(c1cccc([N+](=O)[O-])c1)SC(N)=N2 (stereo not drawn) | > 10 µM | > 10 µM | > 10 µM | > 10 µM | > 10 µM | > 10 µM | > 10 µM | > 10 µM | > 10 µM | – | – | – | – | – | – | – | – | – |
| CC1C2CC(C/C2=N/O)C1(C)C (stereo not drawn) | > 100 µM | > 100 µM | > 100 µM | > 100 µM | > 100 µM | > 100 µM | > 100 µM | > 100 µM | > 100 µM | – | – | – | – | – | – | – | – | – |
| [N-]=[N+]=NC[C@H]1OCO[C@H](CN=[N+]=[N-])[C@H]2OCCOCCOc3ccccc3OCCOCCO[C@@H]21 | > 100 µM | > 100 µM | > 100 µM | > 100 µM | > 100 µM | > 100 µM | > 100 µM | > 100 µM | > 100 µM | – | – | – | – | – | – | – | – | – |
| O=C(/C=C(\O)c1ccccc1)/C(=C/C(=O)c1ccccc1)NN=C(c1ccccc1)c1ccccc1 | > 100 µM | 52.5 µM | > 100 µM | > 100 µM | > 100 µM | > 100 µM | > 100 µM | 72.7 µM | > 100 µM | – | – | – | – | – | – | – | – | – |
| COc1cc([C@H]2Oc3c(OC)cc(CCCO)cc3[C@@H]2CO)ccc1O | > 100 µM | > 100 µM | > 100 µM | > 100 µM | > 100 µM | > 100 µM | > 100 µM | > 100 µM | > 100 µM | – | – | – | – | – | – | – | – | – |
| CC(C)C(C/C=C1/CC(CO)(COC(=O)C2CCCCC2)OC1=O)C(C)C (stereo not drawn) | 36.3 µM | 94.8 µM | > 100 µM | 26.4 µM | 26.9 µM | 31.9 µM | 28.8 µM | 48.6 µM | 43.5 µM | – | – | – | – | – | – | – | – | – |
| CC(C)=Nn1cnc(C(=N)C#N)c1N | > 100 µM | > 100 µM | > 100 µM | > 100 µM | > 100 µM | – | > 100 µM | > 100 µM | – | – | – | – | – | – | – | – | – | – |
| Oc1ccc(Cl)cc1C1=N/C(=N\C/N=C2\N=C(c3cc(Cl)ccc3O)CC(c3ccccc3)N2)NC(c2ccccc2)C1 (stereo not drawn) | > 100 µM | – | > 100 µM | > 100 µM | > 100 µM | – | > 100 µM | > 100 µM | – | – | – | – | – | – | – | – | – | – |
| Cc1ccc(OCC2OC(n3cnc4c(Cl)ncnc43)CC2Oc2ccc(C)cc2)cc1 (stereo not drawn) | 12.6 µM and > 58.8 µM | 12.7 µM and 7.95 µM | > 23.9 µM and 61.8 µM | 15.9 µM and 37 µM | 13 µM and 38 µM | 15.3 µM and 36.6 µM | 3.65 µM and 28.1 µM | 31.7 µM and 44.1 µM | > 59.2 µM and 27.5 µM | 4.44 µM and 21 µM | 7.37 µM and 18.9 µM | 4.29 µM and 17.5 µM | 7.49 µM and 17.5 µM | 1.96 µM and 13.3 µM | – | – | – | – |
| COc1cc(OC)cc(-c2n/c(=C\c3c(O)[nH]c4ccc(Cl)cc34)cc3c2=Nc2ccccc2-3)c1 | 4.66 µM | 4.74 µM | 6.29 µM | 11.1 µM | 3.99 µM | 17.2 µM | 6.88 µM | 59.8 µM | 62.4 µM | 1.82 µM | 3.21 µM | 1.99 µM | 3.73 µM | 2.91 µM | 2.18 µM | 22.8 µM | 2.72 µM | 16.4 µM |
| COP(=O)(OC)C(NC=O)P(=O)(OC)OC | > 100 µM | > 100 µM | > 100 µM | > 100 µM | > 100 µM | > 100 µM | > 100 µM | > 100 µM | > 100 µM | – | – | – | – | – | – | – | – | – |
| O=C(N/N=C/c1ccc(Cl)cc1)c1cc(I)cc(I)c1O | > 100 µM | > 100 µM | > 100 µM | > 100 µM | > 100 µM | > 100 µM | > 100 µM | > 100 µM | – | – | – | – | – | – | – | – | – | – |
| Cc1ccc(SC[C@@]2(C(F)F)NC(=O)NC2=O)cc1 | – | > 100 µM | > 100 µM | > 100 µM | > 100 µM | – | > 100 µM | > 100 µM | > 100 µM | – | – | – | – | – | – | – | – | – |
| CSc1nc(C#N)c(N)n1C | – | > 100 µM | > 100 µM | > 100 µM | > 100 µM | > 100 µM | > 100 µM | > 100 µM | > 100 µM | – | – | – | – | – | – | – | – | – |
| N=C(N)SCCCN | > 59.9 µM | 3.16 µM | > 66.8 µM | > 100 µM | 35.7 µM | 69.8 µM | 51.1 µM | 66 µM | 43.5 µM | – | – | – | – | – | – | – | – | – |
| CC(C)(C)OC(=O)NCC(=O)NC1C/C(=N\O)c2sccc21 (stereo not drawn) | > 100 µM | > 100 µM | > 100 µM | > 100 µM | > 100 µM | > 100 µM | > 100 µM | > 100 µM | > 100 µM | – | – | – | – | – | – | – | – | – |
| O=c1[nH]cnc2sc(=S)c3c(c12)CCC3 | > 100 µM | 41.2 µM | 29.2 µM | > 100 µM | > 100 µM | > 100 µM | > 100 µM | 72.7 µM | > 100 µM | – | – | – | – | – | – | – | – | – |
| CN(C)Cc1cc(C(=O)/C=C/c2cccc(Cl)c2)cc(CN(C)C)c1O | 23.3 µM | 14.1 µM | 11.4 µM | 28.8 µM | 13.7 µM | 11.4 µM | 19.2 µM | 19.6 µM | 32.7 µM | – | – | – | – | – | – | – | – | – |
